Results taken from paper PMC9147192, “Small Molecule Arranged Thermal Proximity Coaggregation (smarTPCA)—A Novel Approach to Characterize Protein–Protein Interactions in Living Cells by Similar Isothermal Dose–Responses” (International Journal of Molecular Sciences, 2022).

What was measured:
Assay in all cases: TPP-CCR in living HL-60 cells
Type in all cases: cell-based
[1] = biological target: T1, CHMP4B (Homo sapiens, UniProt Q9H444)
T1 construct: endogenous in cells; host or cells: HL-60 (ATCC CCL-240)
T1 sequence (Q9H444 1-224): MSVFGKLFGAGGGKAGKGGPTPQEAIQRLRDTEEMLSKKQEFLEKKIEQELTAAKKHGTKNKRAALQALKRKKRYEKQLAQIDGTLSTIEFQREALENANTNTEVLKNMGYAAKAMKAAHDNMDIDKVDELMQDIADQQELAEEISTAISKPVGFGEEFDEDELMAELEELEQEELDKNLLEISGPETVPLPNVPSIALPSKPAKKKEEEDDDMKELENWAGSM
Source text: (§1) Therefore, we performed TPP with compound concentration range (TPP-CCR) experiments according to published procedures. In brief, after preparing tryptic peptides from the non-denatured protein fractions (used for immunoblotting in the previous sections) applying the SP3 method, the peptides were labeled using TMT10plex, coding for inhibitor concentration, and the samples belonging to a TMT set were combined, offline high-pH fractionated, and analyzed by MS.
(§2) HL-60 cells were expanded as described above for CETSA and TPP-TR to 1.25 million cells per milliliter. […] A number of 2.5 million cells in 2 mL of medium were added to each tube and incubated (1 h, 37 °C). After centrifugation (300 rcf, 3 min, r.t.) and removing all of the supernating culture medium, the cells were washed once with 2 mL and once with 0.5 mL PBS (r.t.) by gently resuspending the cells, followed by centrifugation (300 rcf, 3 min, r.t.) and the complete removal of the supernatants.
(§3) After transferring the cells from the 2 mL Eppendorf tubes into correspondingly labeled PCR tubes (tube strips) using 100 µL of ice-cold PBS supplemented with protease inhibitors for resuspending the cells, the samples were further processed as described above for CETSA and TPP-TR, however, by applying a single treatment temperature of 51 °C.
(§4) For each sample set comprising ten compound concentration range samples, a same volume of the cell extracts containing the fraction of soluble, non-denatured proteins, corresponding to an average of 5 µg total protein, was used for further analysis. The calculated volume was respectively transferred into PCR tubes of a tube strip and supplemented with SDS sample buffer without DTT and bromophenol blue (final concentrations: 7.5% glycerol, 3% SDS, 37.5 mM Tris/HCl pH 7.0) and ddH2O to a final volume of 10 µL, respectively. Reduction and alkylation were performed by addition of 2.5 µL 100 mM dithiothreitol (DTT; incubation: 20 min, 56 °C, 1000 rpm in an Eppendorf ThermoMixer C, covering the tubes with aluminum foil to minimize condensation in the lids) and 3.33 µL 300 mM iodoacetamide (IAA; incubation: 15 min, r.t., in the dark without shaking), as well as 2.5 µL 100 mM DTT (incubation: 15 min, r.t., without shaking; quenching of excess of IAA). […] The beads were collected and washed (3× 200 µL 80% ethanol p.a. in HPLC-MS grade water, 1 × 200 µL acetonitrile (ACN; HPLC gradient grade)) using a device for handling of magnetic particles [patent US20100200405A1]. The ACN of the last washing step was completely removed by aspiration without letting the beads dry out.
(§5) Tryptic digest was performed on-bead by resuspending (use of an ultrasound bath may be required) the beads in 20 µL 50 mM TEAB in HPLC-MS grade water containing 0.1 µg Trypsin/Lys-C mix and 16.5 h incubation at 37 °C and 1000 rpm (Eppendorf ThermoMixer C, covering the tubes with aluminum foil to minimize condensation in the lids). Tryptic fragmentation of proteins was optimized by addition of another 0.1 µg of Trypsin/Lys-C mix in 2 µL 50 mM TEAB and 4 h incubation at 37 °C and 1000 rpm. After centrifugation for about 1 min in a table top centrifuge and magnetic concentration and retention of the beads at the inner tube wall, the supernatants containing the peptides were transferred into new PCR tubes (of tube strips) and were stored at −80 °C. The beads were discarded.
(§6) Half of the peptide samples (11 µL containing about 2.5 µg peptides) were transferred into new PCR tubes (of tube strips) and allowed to equilibrate to r.t. TMT labeling reagents were reconstituted as described for the TPP-TR samples, and 1 µL each was added to the reconstituted peptides according to the following scheme and homogenized immediately by aspiration and dispensing:
(§7) Peptide separation was performed as described above for the analysis of TPP-TR samples. […]

[2] = biological target: T2, UNC119B (Homo sapiens, UniProt A6NIH7)
T2 construct: endogenous in cells; host or cells: HL-60 (ATCC CCL-240)
T2 sequence (A6NIH7 whole entry): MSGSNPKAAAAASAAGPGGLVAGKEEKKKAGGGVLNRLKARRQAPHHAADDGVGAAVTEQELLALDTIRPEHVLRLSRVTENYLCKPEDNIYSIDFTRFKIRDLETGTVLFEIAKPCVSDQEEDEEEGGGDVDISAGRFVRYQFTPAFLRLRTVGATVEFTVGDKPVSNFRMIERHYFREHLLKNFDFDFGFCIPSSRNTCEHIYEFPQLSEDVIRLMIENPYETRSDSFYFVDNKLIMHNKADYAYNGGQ
Source text: as §1, §2, §3, §4, §5, §6, §7

[3] = biological target: T3, MIA3 (Homo sapiens, UniProt Q5JRA6)
T3 construct: endogenous in cells; host or cells: HL-60 (ATCC CCL-240)
T3 sequence (Q5JRA6 23-1907): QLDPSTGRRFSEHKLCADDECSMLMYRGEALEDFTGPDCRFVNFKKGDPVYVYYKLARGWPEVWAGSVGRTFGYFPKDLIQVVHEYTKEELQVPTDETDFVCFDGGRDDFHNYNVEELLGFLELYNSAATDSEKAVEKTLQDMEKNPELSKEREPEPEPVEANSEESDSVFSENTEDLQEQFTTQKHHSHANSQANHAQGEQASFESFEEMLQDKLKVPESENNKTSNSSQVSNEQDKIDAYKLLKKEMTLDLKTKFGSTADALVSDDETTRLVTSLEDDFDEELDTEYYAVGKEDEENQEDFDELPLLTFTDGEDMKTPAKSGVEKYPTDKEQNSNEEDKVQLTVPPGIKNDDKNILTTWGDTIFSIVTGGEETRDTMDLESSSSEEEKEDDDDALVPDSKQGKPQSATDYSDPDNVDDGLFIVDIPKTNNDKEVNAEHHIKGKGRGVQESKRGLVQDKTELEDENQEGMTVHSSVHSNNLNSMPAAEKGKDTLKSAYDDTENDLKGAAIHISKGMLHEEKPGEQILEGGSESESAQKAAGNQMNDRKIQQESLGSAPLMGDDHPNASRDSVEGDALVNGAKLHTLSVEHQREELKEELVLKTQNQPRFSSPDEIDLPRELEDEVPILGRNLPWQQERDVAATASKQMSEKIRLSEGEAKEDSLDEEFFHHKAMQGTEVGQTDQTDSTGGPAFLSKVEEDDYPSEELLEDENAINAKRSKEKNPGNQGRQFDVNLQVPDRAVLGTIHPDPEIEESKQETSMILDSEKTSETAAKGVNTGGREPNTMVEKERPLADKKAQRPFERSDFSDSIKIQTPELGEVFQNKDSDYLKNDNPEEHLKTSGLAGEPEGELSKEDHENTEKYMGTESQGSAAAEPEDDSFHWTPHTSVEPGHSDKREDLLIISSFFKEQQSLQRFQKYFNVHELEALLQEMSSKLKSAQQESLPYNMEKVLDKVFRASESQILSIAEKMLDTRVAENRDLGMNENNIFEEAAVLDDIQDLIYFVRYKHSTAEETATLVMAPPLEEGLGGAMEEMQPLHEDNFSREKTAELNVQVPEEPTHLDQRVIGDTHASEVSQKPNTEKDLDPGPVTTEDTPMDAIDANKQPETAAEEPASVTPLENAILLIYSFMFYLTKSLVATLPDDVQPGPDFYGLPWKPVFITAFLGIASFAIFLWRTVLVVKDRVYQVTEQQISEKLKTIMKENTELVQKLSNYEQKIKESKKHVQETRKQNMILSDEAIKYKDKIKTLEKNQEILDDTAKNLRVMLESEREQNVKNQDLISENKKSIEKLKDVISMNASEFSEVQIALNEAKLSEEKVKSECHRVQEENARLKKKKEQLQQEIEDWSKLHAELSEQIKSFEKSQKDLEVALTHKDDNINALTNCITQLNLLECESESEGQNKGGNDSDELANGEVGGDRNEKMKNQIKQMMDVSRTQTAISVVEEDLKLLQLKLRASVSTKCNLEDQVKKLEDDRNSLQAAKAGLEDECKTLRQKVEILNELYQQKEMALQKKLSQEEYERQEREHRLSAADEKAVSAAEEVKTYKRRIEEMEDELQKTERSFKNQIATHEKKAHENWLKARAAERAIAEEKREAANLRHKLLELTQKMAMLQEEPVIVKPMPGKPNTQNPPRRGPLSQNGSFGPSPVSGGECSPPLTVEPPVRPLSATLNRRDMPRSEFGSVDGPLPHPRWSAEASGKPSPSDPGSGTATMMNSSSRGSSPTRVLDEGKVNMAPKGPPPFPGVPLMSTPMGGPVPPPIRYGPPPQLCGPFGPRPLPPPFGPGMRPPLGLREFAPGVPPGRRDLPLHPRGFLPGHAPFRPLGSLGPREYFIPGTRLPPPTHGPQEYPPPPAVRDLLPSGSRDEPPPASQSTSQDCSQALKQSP
Source text: as §1, §2, §3, §4, §5, §6, §7

[4] = biological target: T4, SMIM12 (Homo sapiens, UniProt Q96EX1)
T4 construct: endogenous in cells; host or cells: HL-60 (ATCC CCL-240)
T4 sequence (Q96EX1 1-92): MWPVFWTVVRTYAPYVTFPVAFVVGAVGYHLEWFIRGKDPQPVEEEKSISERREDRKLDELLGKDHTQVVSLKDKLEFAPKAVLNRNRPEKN
Source text: as §1, §2, §3, §4, §5, §6, §7

[5] = biological target: T5, DDX18 (Homo sapiens, UniProt Q9NVP1)
T5 construct: endogenous in cells; host or cells: HL-60 (ATCC CCL-240)
T5 sequence (Q9NVP1 1-670): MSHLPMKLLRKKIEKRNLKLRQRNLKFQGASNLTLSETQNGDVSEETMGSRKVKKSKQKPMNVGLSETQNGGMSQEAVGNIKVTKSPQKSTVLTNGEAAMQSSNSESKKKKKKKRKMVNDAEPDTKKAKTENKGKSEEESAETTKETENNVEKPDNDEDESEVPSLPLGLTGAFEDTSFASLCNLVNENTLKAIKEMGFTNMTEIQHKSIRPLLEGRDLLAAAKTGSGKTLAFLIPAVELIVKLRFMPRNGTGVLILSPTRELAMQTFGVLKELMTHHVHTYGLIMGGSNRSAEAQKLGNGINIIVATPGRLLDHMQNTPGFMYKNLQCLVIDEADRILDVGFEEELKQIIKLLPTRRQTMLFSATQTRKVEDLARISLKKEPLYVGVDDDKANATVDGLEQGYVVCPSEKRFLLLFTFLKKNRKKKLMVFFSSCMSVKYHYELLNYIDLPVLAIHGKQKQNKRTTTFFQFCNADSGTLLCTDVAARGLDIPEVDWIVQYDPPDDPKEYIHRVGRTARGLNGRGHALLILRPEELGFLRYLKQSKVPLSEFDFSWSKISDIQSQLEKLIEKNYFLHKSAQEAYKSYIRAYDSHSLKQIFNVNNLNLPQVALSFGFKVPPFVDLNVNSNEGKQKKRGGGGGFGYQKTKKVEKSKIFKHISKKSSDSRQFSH
Source text: as §1, §2, §3, §4, §5, §6, §7

[6] = living HL-60 cells, […] °C, TMT-MS

## Cc1cnc(Nc2ccc(F)cc2Cl)nc1-c1c[nH]c(C(=O)N[C@H](CO)c2cccc(Cl)c2)c1 [ERK 11e]
[1]; TPP-CCR, living cells, CHMP4B
  Hill slope: 0.21
[1]; [6]
  Hill slope (CHMP4B): 0.21
[1]; living HL-60 cells, […] °C, TMT-MS, read-out: pEC50 (CHMP4B) (converted)
  EC50: 41.7 nM
[2]; TPP-CCR, living cells, UNC119B
  Hill slope: 0.67
[2]; [6]
  Hill slope (UNC119B): 0.67
[2]; living HL-60 cells, […] °C, TMT-MS, read-out: pEC50 (UNC119B) (converted)
  EC50: 1050 nM
[3]; TPP-CCR, living cells, MIA3
  Hill slope: 0.98
[3]; [6]
  Hill slope (MIA3): 0.98
[3]; living HL-60 cells, […] °C, TMT-MS, read-out: pEC50 (MIA3) (converted)
  EC50: 3390 nM
[4]; TPP-CCR, living cells, SMIM12
  Hill slope: 0.47
[4]; [6]
  Hill slope (SMIM12): 0.47
[4]; living HL-60 cells, […] °C, TMT-MS, read-out: pEC50 (SMIM12) (converted)
  EC50: 427 nM
[5]; TPP-CCR, living cells, DDX18
  Hill slope: 0.20
[5]; [6]
  Hill slope (DDX18): 0.20
[5]; living HL-60 cells, […] °C, TMT-MS, read-out: pEC50 (DDX18) (converted)
  EC50: 200 nM
